We go through 23 compounds from patent publication US20200277268A1, “PENTAFLUOROPHENYL SULFONAMIDE COMPOUNDS, COMPOSITIONS AND USES THEREOF” (DALRIADA THERAPEUTICS INC., priority 2017, published 2020).

Format in all cases: cell-based
One test concerns MV4-11. As to the kind of experiment: CellTiter-Blue cell viability, MV4-11. The settings on record: for IC50: Homo sapiens, MV4-11, AML cell line, 72 hours; for potency relative to parent I-1 analogue: cell viability, Table 1; for activity in AML cells: AML cells (MV4-11 and MOLM13). As for the experimental part:
(§1) The anti-cancer efficacy of exemplary compounds of the application were assessed in vitro against different cancer cell lines. Cell viability was examined following treatment at various concentrations of inhibitor (0.097656-50 μM) using a CellTiter-Blue® cell viability assay. 1×10^4 cells/well were plated in 96-well assay plates in culture medium. All cells were grown in DMEM, IMDM and RPMI-1640 supplemented with 10% fetal bovine serum (FBS). In some instances, FBS was removed for periods ranging from 16-24 hours, and re-introduced with test compound addition. After 24 hrs, test compounds and vehicle controls were added to appropriate wells such that the final volume was 100 μl in each well. The cells were cultured for the desired test exposure period (72 hours) at 37° C. and 5% CO2. The assay plates were removed from 3° C. incubator and 20 μl/well of CellTiter-Blue® Reagent was added. The plates were incubated using standard cell culture conditions for 1-4 hours. Afterwards, the plates were shaken for 10 seconds and florescence was recorded at 560/590 nm using a Cytation 3 spectrophotometer. IC50 values were determined using non-linear regression analysis with GraphPad Prism 6.0 (GraphPad Software Inc.).

The subject of the next test is MOLM13. The experiment in a line: CellTiter-Blue cell viability, MOLM13. The settings on record: Homo sapiens, MOLM-13; AML cell line, 72 hours. As for the experimental part:
as §1
A general note: Resazurin is reduced to fluorescent resorufin, in cell work by metabolically active cells.

For test [1], the system named is healthy human lung cells (MRC9). The experiment in a line: CellTiter-Blue cell viability, MRC9. The note with it: non-cancerous, 72 hours. As for the experimental part: as §1

Where only a bound is given, the exact number is not on record here.

As for `O=S(=O)(c1c(F)c(F)c(F)c(F)c1F)N(Cc1ccc(F)cc1)C1CCCC1` [Compound I-5, N-cyclopentyl-2,3,4,5,6-pentafluoro-N-(4-fluorobenzyl)benzenesulfonamide], the IC50 was determined as 0.7 µM in the test with MV4-11 and 2 µM in the test with MOLM13.

As to `O=S(=O)(c1c(F)c(F)c(F)c(F)c1F)N(Cc1ccccc1)C1CC1` [Compound I-6, N-benzyl-N-cyclopropyl-2,3,4,5,6-pentafluorobenzenesulfonamide], the IC50 in the test with MV4-11 stood at 1.3 µM; in test [1] it was 17.5 µM; in the test on MOLM13, 1.3 µM.

With `O=S(=O)(NCc1ccc(F)cc1)c1c(F)c(F)c(F)c(F)c1F` [Comparative Example 4, 2,3,4,5,6-pentafluoro-N-(4-fluorobenzyl)benzenesulfonamide, reference compound], the IC50 is 3.1 µM in the test on MV4-11, 16.8 µM in test [1] and 4 µM with MOLM13. Moreover, the “potency relative to parent I-1 analogue” value in the test with MV4-11 was “less potent”.

As to `CS(=O)(=O)c1ccc(CN(C2CC2)S(=O)(=O)c2c(F)c(F)c(F)c(F)c2F)cc1` [Compound I-24, N-cyclopropyl-2,3,4,5,6-pentafluoro-N-(4(methylsulfonyl)benzyl)benzenesulfonamide], the IC50 with MV4-11 stood at 1.15 µM; in the test with MOLM13 it was 1.35 µM.

Take `O=S(=O)(c1ccccc1)N(Cc1ccc(F)cc1)C1CC1` [Comparative Example 2, N-cyclopropyl-N-(4-fluorobenzyl)benzenesulfonamide, reference compound]: the “activity in AML cells” value in the test on MV4-11 was “inactive”. Further, the IC50 with MV4-11 and in the test with MOLM13 was not below 25 µM throughout.

For the compound `Nc1ccc(-c2ccccc2CN(C2CC2)S(=O)(=O)c2c(F)c(F)c(F)c(F)c2F)cc1` [Compound I-38, N-((4′-amino-[1,1′-biphenyl]-2-yl)methyl)-N-cyclopropyl-2,3,4,5,6-pentafluorobenzenesulfonamide], the figures for the IC50 (in the test on MV4-11; in test [1]; with MOLM13) were 1.43 µM, 13.1 µM and 8.51 µM, respectively.

`O=S(=O)(c1c(F)c(F)c(F)c(F)c1F)N(Cc1ccoc1)C1CC1` [Compound I-33]: the IC50 with MV4-11 was found to be 3.55 µM; in test [1], 22.1 µM; in the test with MOLM13, 3.86 µM.

`O=S(=O)(c1c(F)c(F)c(F)c(F)c1F)N(C1CC1)C(c1ccc(F)cc1)C(F)(F)F` (stereo not shown) [Compound I-10, N-cyclopropyl-2,3,4,5,6-pentafluoro-N-(2,2,2-trifluoro-1-(4-fluorophenyl)ethyl)benzenesulfonamide]: the IC50 is 0.974 µM in the test with MV4-11 and 9.83 µM in the test with MOLM13.

In the case of `CN(Cc1ccc(F)cc1)S(=O)(=O)c1c(F)c(F)c(F)c(F)c1F` [Compound I-58, 2,3,4,5,6-pentafluoro-N-(4-fluorobenzyl)-N-methylbenzenesulfonamide], the results for the IC50 with MV4-11 and in the test on MOLM13 were 0.44 µM and 3.1 µM, respectively.

Consider `CC(=O)N(Cc1ccc(F)cc1)S(=O)(=O)c1c(F)c(F)c(F)c(F)c1F` [Compound I-4, N-(4-fluorobenzyl)-N-((perfluorophenyl)sulfonyl)acetamide], for which the IC50 came out at 2.09 µM in the test on MV4-11, 25 µM in test [1] and 5.1 µM with MOLM13.

Consider `COc1ccc(CN(C2CC2)S(=O)(=O)c2c(F)c(F)c(F)c(F)c2F)cc1F` [Compound I-17, N-cyclopropyl-2,3,4,5,6-pentafluoro-N-(3-fluoro-4-methoxybenzyl)benzenesulfonamide], for which the IC50 in the test on MV4-11 was found to be 0.79 µM; in test [1], 16.2 µM; in the test with MOLM13, 0.63 µM.

Turning to `O=S(=O)(c1c(F)c(F)cc(F)c1F)N(Cc1ccc(F)cc1)C1CC1` [Comparative Example 8, N-cyclopropyl-2,3,5,6-tetrafluoro-N-(4-fluorobenzyl)benzenesulfonamide, reference compound], in the test on MV4-11, the “activity in AML cells” value was “inactive” and the IC50 was more than 12.5 µM. For the same compound, in the test with MOLM13, the IC50 was more than 25 µM.

In the case of `O=S(=O)(c1c(F)c(F)c(F)c(F)c1F)N(Cc1ccc(F)cc1)c1ccccc1` [Compound I-53, 2,3,4,5,6-pentafluoro-N-(4-fluorobenzyl)-N-phenylbenzenesulfonamide], the IC50 was 1.4 µM in the test on MV4-11 and 1.5 µM in the test on MOLM13.

For `O=S(=O)(c1c(F)c(F)c(F)c(F)c1F)N(Cc1ccncc1)Cc1ccc(F)cc1` [Compound I-52], the IC50 in the test on MV4-11 was 4.1 µM; in the test on MOLM13, 3.5 µM.

For `O=C(OCc1ccccc1)c1ccc(CN(C2CC2)S(=O)(=O)c2c(F)c(F)c(F)c(F)c2F)cc1` [Compound I-41, Benzyl 4-(((N-cyclopropyl-2,3,4,5,6-pentafluorophenyl)sulfonamido)methyl)benzoate], the values for the IC50 in the test on MV4-11 and with MOLM13 were 1 µM and 3.2 µM, respectively.

For `O=S(=O)(c1c(F)c(F)c(F)c(F)c1F)N(Cc1ccncc1)C1CC1` [Compound I-9, N-cyclopropyl-2,3,4,5,6-pentafluoro-N-(pyridin-4-ylmethyl)benzenesulfonamide], the IC50 in the test with MV4-11 was 1.83 µM; with MOLM13, 1.62 µM.

For the compound `COC(=O)c1ccc(CN(C2CC2)S(=O)(=O)c2c(F)c(F)c(F)c(F)c2F)cc1` [Compound I-27, Methyl 4-(((N-cyclopropyl-2,3,4,5,6-pentafluorophenyl)sulfonamido)methyl)benzoate], the results for the IC50 in the test with MV4-11 and in the test on MOLM13 were 2 µM and 0.9 µM, respectively.

Take `CCOC(=O)C1(N(Cc2ccc(F)cn2)S(=O)(=O)c2c(F)c(F)c(F)c(F)c2F)CC1` [Compound I-18, Ethyl 1-((2,3,4,5,6-pentafluoro-N-((5-fluoropyridin-2-yl)methyl)phenyl)sulfonamido)cyclopropane-1-carboxylate]: the IC50 amounted to 2.8 µM with MV4-11 and 6.2 µM in the test on MOLM13.

`O=S(=O)(NC1(c2ccccc2)CC1)c1c(F)c(F)c(F)c(F)c1F` [Comparative Example 7, 2,3,4,5,6-pentafluoro-N-(1-phenylcyclopropyl)benzenesulfonamide, reference compound]: the IC50 in the test with MV4-11 stood at 31 µM.

On to `O=S(=O)(Nc1ccc(F)cc1)c1c(F)c(F)c(F)c(F)c1F` [Comparative Example 5, 2,3,4,5,6-pentafluoro-N-(4-fluorophenyl)benzenesulfonamide, reference compound], for which, in the test on MV4-11, the IC50 was determined as 4.4 µM and the “potency relative to parent I-1 analogue” value was “less potent”. The compound also gave an IC50 in the test on MOLM13 of 17.6 µM.

As to `O=S(=O)(c1c(F)c(F)c(F)c(F)c1F)N(Cc1ccc(F)cc1)C1CCOC1` (stereo not shown) [Compound I-51, 2,3,4,5,6-pentafluoro-N-(4-fluorobenzyl)-N-(tetrahydrofuran-3-yl)benzenesulfonamide], the results for the IC50 in the test with MV4-11 and with MOLM13 were 4.8 µM and 3.37 µM, respectively.

On to `COc1cc(CN(C2CC2)S(=O)(=O)c2c(F)c(F)c(F)c(F)c2F)cc(OC)c1` [Compound I-22, N-cyclopropyl-N-(3,5-dimethoxybenzyl)-2,3,4,5,6-pentafluorobenzenesulfonamide], for which the IC50 in the test with MV4-11 is 4.7 µM; in the test on MOLM13, 4.5 µM.

Take `O=S(=O)(c1c(F)c(F)c(F)c(F)c1F)N(Cc1ccccn1)C1CC1` [Compound I-32, N-cyclopropyl-2,3,4,5,6-pentafluoro-N-(pyridin-2-ylmethyl)benzenesulfonamide]: the IC50 in the test with MV4-11 is 1.5 µM; in the test with MOLM13 it was 1.3 µM.

One may read the IC50 as the midpoint of a concentration-inhibition curve.
